Data: publication PMC4522690 (Journal of medicinal chemistry, 2015)

What was measured:
TFR-PR20 [1] = assay: Inhibition of N-terminal autoprocessing of mutant precursor in E. coli; assay type: cell-based, HIV-1; conditions: tests up to 100 μM concentration
TFR-PR [2] = target: T1, TFR-PR (Human immunodeficiency virus type 1, UniProt P03366); assay: Inhibition of N-terminal autoprocessing of wild-type precursor in E. coli; assay type: cell-based, HIV-1
PR20 [3] = assay: Kinetic assay of PR20 proteolytic activity with fluorogenic substrate; assay type: biochemical, HIV-1; conditions: Ki PR20 / Ki wild-type PR
TFR-PR [4] = target: T1, TFR-PR; conditions: cited from earlier work
TFR-PR20 [5] = conditions: cited from earlier work
PR20 [6] = conditions: compared with darunavir or wild-type PR; cited from earlier work
PR20 [7] = target: PR20 (Human immunodeficiency virus type 1, UniProt P03366, D530N/I547V/I584V, form not given); assay: Kinetic assay of PR20 proteolytic activity with fluorogenic substrate; assay type: biochemical, HIV-1; conditions: versus darunavir KL 41 nM
[8] = blood–brain barrier penetration; cited from earlier work
[9] = system: highly darunavir resistant strain of HIV-1; conditions: strain selected in the laboratory; cited from earlier work

SMILES | inhibition of autoprocessing of TFR-PR20 precursor (TFR-PR20 [1]) | IC50 (TFR-PR [2]) [nM] | inhibition of autoprocessing of TFR-PR relative to other clinical protease inhibitors (in words) (TFR-PR [4]) | inhibition of autoprocessing of PR20-containing precursors (in words) (TFR-PR20 [5]) | other results
COc1ccc(S(=O)(=O)N(CC(C)C)C[C@@H](O)[C@H](Cc2ccccc2)NC(=O)O[C@H]2CO[C@H]3OC[C@H](OC)[C@H]32)cc1 [GRL-4410A] | no significant improvement was observed in the inhibition | 1000 to 2000 | – | – | fold weaker inhibition (Ki) of PR20 than wild-type PR (PR20 [3]): 1000 fold
CC(C)(C)NC(=O)[C@@H]1C[C@@H]2CCCC[C@@H]2CN1C[C@@H](O)[C@H](Cc1ccccc1)NC(=O)[C@H](CC(N)=O)NC(=O)c1ccc2ccccc2n1 [saquinavir] | – | – | inhibited most effectively | – | –
CC(C)CN(C[C@@H](O)[C@H](Cc1ccccc1)NC(=O)O[C@H]1CO[C@H]2OCC[C@H]21)S(=O)(=O)c1ccc(N)cc1 [darunavir] | – | – | inhibited most effectively | like darunavir, neither GRL-02031A nor GRL-0519A inhibits the autoprocessing | –
COc1ccc(S(=O)(=O)N(C[C@H]2CCC(=O)N2)C[C@@H](O)[C@H](Cc2ccccc2)NC(=O)O[C@@H]2C[C@@H]3CCO[C@@H]3C2)cc1 [GRL-02031A] | – | – | – | neither GRL-02031A nor GRL-0519A inhibits the autoprocessing | binding affinity for PR20 (in words) (PR20 [6]): weaker affinity for PR20
COC(=O)N[C@H](C(=O)N[C@@H](Cc1ccccc1)[C@@H](O)CN(Cc1ccc(-c2ccccn2)cc1)NC(=O)[C@@H](NC(=O)OC)C(C)(C)C)C(C)(C)C [atazanavir] | – | – | inhibited most effectively | – | –
CC(C)CN(C[C@@H](O)[C@H](Cc1ccccc1)NC(=O)O[C@H]1CO[C@H]2OCC(F)(F)[C@H]21)S(=O)(=O)c1ccc(N)cc1 [GRL-5010A] | no significant improvement was observed in the inhibition | 1000 to 2000 | – | – | fold lower Ki for PR20 relative to darunavir binding affinity (KL) (PR20 [7]): about 2 fold; fold higher apparent permeability coefficient (Papp) than darunavir [8]: 6.5 fold; antiviral activity against highly darunavir resistant HIV-1 (in words) [9]: moderate antiviral activity
